Laboratory results published in US7241579B2, “Method of screening for GPR40 ligands” (SmithKline Beecham Corporation, priority 2000, dated 2007).
Where two headings read alike, the source gives them in different places.

Legend:
Format in all cases: cell-based
[1] = target: T1, human GPR40 (Homo sapiens, UniProt O14842); test: FLIPR intracellular calcium response in HEK-293 cells transiently expressing GPR40; set-up: expressed in transfected cells; host or cells: HEK-293 (transient); conditions: GPR40 stimulation
T1 sequence (O14842 whole entry): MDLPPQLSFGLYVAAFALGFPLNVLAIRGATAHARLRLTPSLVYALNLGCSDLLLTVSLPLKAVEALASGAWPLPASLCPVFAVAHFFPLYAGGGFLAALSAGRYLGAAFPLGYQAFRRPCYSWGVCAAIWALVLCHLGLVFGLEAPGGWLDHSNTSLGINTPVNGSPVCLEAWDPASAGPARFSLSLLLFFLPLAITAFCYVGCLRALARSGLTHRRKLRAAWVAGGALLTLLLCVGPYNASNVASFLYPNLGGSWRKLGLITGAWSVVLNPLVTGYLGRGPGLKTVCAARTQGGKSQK
Excerpt: The Fluorometric Imaging Plate Reader (FLIPR™, Molecular Devices, UK) measures intracellular fluorescense in multi-well microplates. Where a GPCR couples to a calcium signalling pathway, the FLIPR system can be used with cells expressing the G-protein coupled receptor and containing calcium-sensitive fluorescent dyes, to monitor the intracellular calcium flux that occurs after activation of the G-coupled receptor. See, e.g., Kirk et al., J. Biomolecular Screening, 1:75 (1996).
(§1) The assays utilized a G-protein cocktail (+GPC) that contained chimeric and promiscuous G-proteins, as is known in the art of screening orphan G-protein coupled receptors.

[2] = target: T1, human GPR40; test: CRE-luciferase reporter in CHO cells co-transfected with GPR40 expression vector; set-up: expressed in transfected cells; conditions: CHO cells containing GPR40 and CRE-Luc reporter, 4 hours of treatment
Protocol: (§2) Specific coupling was determined in mammalian cells using transient expression of a CRE-luciferase reporter for Gαs and stable cell-lines containing Gal4/ELK-1-luciferase reporter for Gαq/Gαi. Wild-type CHO cells were co-transfected with 3×-CRE-luciferase reporter vector and various amounts of an expression vector for GPR40. The control cells were transfected with reporter vector only. The reporter gene plasmids were produced in house but similar vectors can be purchased from Stratagene ([…]®). Cells were plated in a 24 well tissue culture plate at 1×10^4 cells/well in DMEM/F12 supplemented with 5% FBS. After 72 hours at 37° C., 5% CO2, the cells were transfected using the liposomal transfection reagent sold under the trademark LIPOFECTAME® and with the following combinations of plasmids: • A-3×-CRE-Luc • B-3×-CRE-Luc+CMV-GPR40 • C-3×-CRE-Luc+CMV-Gs coupled receptor The concentration of reporter plasmid for all wells was 0.15 μg/well. Concentrations of receptor plasmids were 0.5, 1.0, 5.0, 10.0 ng/well. After 24 hrs Cells containing 1 ng/well of receptor plasmid or no DNA control and CRE-Luc reporter were treated with fatty acid or the calcitonin which is known to act through a Gs-coupled receptor (Chakraborty, Science 251: 1078 (1991)) at concentrations indicated. […]

[3] = system: CHO cells expressing CRE-luciferase with no receptor; test: CRE-luciferase reporter in CHO cells containing reporter only (no receptor); conditions: 4 hours of treatment
Protocol: as §2

[4] = target: T1, human GPR40; test: GAL4/Elk-1-luciferase reporter in CHO clones transfected with human GPR40, with and without pertussis toxin; set-up: expressed in transfected cells
Excerpt: (§3) To further test the coupling of GPR40 to Gαi/Gαq a Gal4/Elk-1 reporter was used. A stable, clonal reporter line was created by transfecting CHO cells with a plasmid that contains an expression construct for GAL4/Elk-1 and a GAL4-luciferase reporter construct. A similar reporter system can now be purchased from Stratagene (under the trademark […]®). An expression construct for human GPR40 which contains a G418 resistance construct was transfected into the host CHO GAL4/Elk-1 reporter cell line (10 ug plasmid DNA pCR3-GPR40) via electroporation. The cell lines were selected for with 500 ug/mL G418 until all cells in the control were dead and clones were then picked. The Gal4/Elk-1 reporter can be activated through Gq or Gi. To confirm coupling via Gi, cells were treated with pertussis toxin treatment which ADP-ribosylates Gαi preventing its interaction with receptors (Bokoch et al., J. Biol. Chem 258:2072 (1983)). Pertussis toxin has no known effect on Gαq.
(§4) Host cells and those transfected with the GPR40 construct were plated in a 96-well tissue culture plate at 2000 cells/well in DMEM/F12 supplemented with 5% FBS. After 48 hours at 37° C. at 5% CO2, the cells were placed in serum-free DMEM/F12 in the presence or absence of 1 ug/ml pertussis toxin. After 16 hours at 37° C., 5% CO2 the host cells were treated with: lysophosphatidic acid (oleoyl) (LPA) which couples through GαI to activate MAP kinase (Hordijk et al., J. Biol. Chem. 269: 645 (1994)); thrombin which couples through Gαi and Gαq (Hung et al., J. Biol. Chem. 267:20831 (1992)); or 5,8,11-Eicosatriynoic acid (a GPR40 ligand), at the concentrations indicated. The host cells containing the GPR40 construct were stimulated with or 5,8,11-Eicosatriynoic acid at the concentrations indicated. Controls for lysophosphatidic acid contained 0.5% DMSO; controls for […] contained 0.05% ethanol. Luciferase activity was assayed 4 hours after treatment using a luciferase reporter gene assay kit available under the trademark LUCLITE®, as per manufacturers instructions (Packard Bioscience).

[5] = system: CHO cells containing GAL4/Elk1-luciferase reporter constructs; test: GAL4/Elk-1-luciferase reporter in host CHO cells (reporter only), with and without pertussis toxin; conditions: for agonist-stimulated reporter activity after pertussis toxin treatment: 1 ug/ml pertussis toxin 16 hours
Excerpt: as §3, §4

[6] = system: HLTEX11; test: FLIPR calcium response in HEK-293 cells transiently expressing the 7TM receptor HLTEX11; conditions: HEK-293 cells transiently expressing HLTEX11, + G-protein cocktail
Excerpt: as §1

[7] = system: PGRW; test: FLIPR calcium response in HEK-293 cells transiently expressing the 7TM receptor PGRW (GPRW); conditions: HEK-293 cells transiently expressing PGRW, + G-protein cocktail
Excerpt: as §1

[8] = FLIPR, Additional Fatty Acid Compounds, read-out: EC50 uM
[9] = FLIPR, Additional Fatty Acid Compounds, read-out: EC50
[10] = FLIPR, first of up to 3 experiments, read-out: Mean pEC50 (converted)
[11] = FLIPR, second of up to 3 experiments, read-out: Mean pEC50 (converted)
[12] = FLIPR, third experiment, read-out: Mean pEC50 (converted)
[13] = Mean pEC50 of 3 expts, FLIPR, overall mean (n = 1 or 2 where stated)
[14] = Mean pEC50, FLIPR, first of up to 3 experiments
[15] = Mean pEC50, FLIPR, second of up to 3 experiments
[16] = EC50 uM, FLIPR, Additional Fatty Acid Compounds
[17] = EC50 (M), FLIPR, Additional Fatty Acid Compounds

Molecule | EC50 [1, 8] [µM] | EC50 [1, 9] [µM] | EC50 [1, 10] [µM] | EC50 [1, 11] [µM] | EC50 [1, 12] [µM] | EC50 [1, 13] [µM] | further results
CCCCCCCCC#CCC#CCC#CCCCC(=O)O [5,8,11-Eicosatriynoic acid] | 1.7 | 1.7 | – | – | – | – | luciferase production (CRE-luciferase) [2]: no effect; luciferase production (CRE-luciferase) [3]: no effect; agonist-stimulated luciferase activity after pertussis toxin treatment ([4]; cells containing GPR40, 1 ug/ml pertussis toxin 16 hours): not inhibited; luciferase activity compared to basal (GAL4/Elk-1 reporter) ([4]; cells containing GPR40, 4 hours after treatment): increased luciferase activity; luciferase production (GAL4/Elk-1 reporter) ([5]; 4 hours after treatment): no effect
C#CCCCCCCCCCCCCCCCC(=O)O [17-Octadecynoic acid] | 7.6 | 7.58 | – | – | – | – | –
CCCCC/C=C\C/C=C\C/C=C\C/C=C\CCCC(=O)O [Arachidonic acid] | 9.1 | 9.12 | 18.2 | 12.9 | 7.24 | 12 | –
CCCCCCCCCCCCCCCCCCCCCC(=O)O [Behenic acid] | – | – | – | 49 | – | 50.1 | EC50 [1, 14]: 51.3 µM
CCCCCCCCCC(=O)O [Capric acid] | – | – | 18.2 | 11 | 14.5 | 14.1 | –
CCCCCCCC(=O)O [Caprylic acid] | – | – | – | – | – | 38 | EC50 [1, 14]: 56.2 µM; EC50 [1, 15]: 26.3 µM
CCCCC/C=C\C/C=C\C/C=C\CCCCCCC(=O)O [Dihomo-gamma-linolenic acid] | 7.2 | 7.24 | – | – | – | – | –
CC/C=C\C/C=C\C/C=C\C/C=C\C/C=C\CCCCCC(=O)O [Docosa-7Z,10Z,13Z,16Z,19Z-pentaenoic acid] | 4.7 | 4.68 | – | – | – | – | –
CC/C=C\C/C=C\C/C=C\CCCCCCCCCCCC(=O)O [Docosa-13Z,16Z,19Z-trienoic acid] | 6.8 | 6.76 | – | – | – | – | –
CC/C=C\C/C=C\C/C=C\C/C=C\C/C=C\CCCC(=O)O [Eicosa-5Z,8Z,11Z,14Z,17Z-pentaenoic acid] | 6.8 | 6.76 | – | – | – | – | –
CCCCCCCCCCC/C=C\C/C=C\CCCC(=O)O [Eicosa-5Z,8Z-dienoic acid] | 7.8 | 7.76 | – | – | – | – | –
CC/C=C\C/C=C\C/C=C\CCCCCCCCCC(=O)O [Eicosa-11Z,14Z,17Z-trienoic acid] | 11.2 | 11.2 | – | – | – | – | –
CCCCC/C=C\C/C=C\CCCCCCCCCC(=O)O [Eicosa-11Z,14Z-dienoic acid] | 10.7 | 10.7 | – | – | – | – | –
CCCCCCCC/C=C/CCCCCCCC(=O)O [Elaidic acid] | – | – | – | – | – | – | FLIPR calcium response [6]: No response was detected; FLIPR calcium response [7]: No response was detected
CCCCCCCCCCCCCCCCCCCCC(=O)O [Heneicosanoic acid] | – | – | 35.5 | 29.5 | – | 32.4 | –
CCCCCCCCCCCCCCCCC(=O)O [Heptadecanoic acid] | – | – | 13.8 | 10.2 | 7.76 | 10.2 | –

Molecule | EC50 [1, 8] [µM] | EC50 [1, 9] [µM] | EC50 [1, 10] [µM] | EC50 [1, 11] [µM] | EC50 [1, 12] [µM] | EC50 [1, 13] [µM] | further results
CCCCCCC(=O)O [Heptanoic acid] | – | – | 46.8 | 60.3 | – | 52.5 | –
CCCCCCCC/C=C\CCCCCCCC(=O)OC[C@@H](O)COP(=O)(O)O [LPA, lysophosphatidic acid (oleoyl)] | – | – | – | – | – | – | agonist-stimulated reporter activity after pertussis toxin treatment [5]: completely abolished
CCCCCCCCCCCC(=O)O [Lauric acid] | – | – | 17.8 | 11.7 | 8.51 | 12 | –
CCCCC/C=C\C/C=C\CCCCCCCC(=O)O [Linoleic acid] | – | – | – | – | – | 18.6 | EC50 [1, 16]: 9.5 µM; EC50 [1, 17]: 9.54 µM; EC50 [1, 14]: 16.6 µM; EC50 [1, 15]: 20.9 µM
CC/C=C\C/C=C\C/C=C\CCCCCCCC(=O)O [Linolenic acid] | – | – | – | – | – | 12.6 | EC50 [1, 16]: 5.5 µM; EC50 [1, 17]: 5.5 µM; EC50 [1, 14]: 11.7 µM; EC50 [1, 15]: 21.9 µM; EC50 ([1]; Mean pEC50, FLIPR, third experiment): 7.59 µM
CCCCCCCCCCCCCCCCCCC(=O)O [Nonadecanoic acid] | – | – | 26.3 | 34.7 | – | 30.2 | –
CCCCCCCCC(=O)O [Nonanoic acid] | – | – | – | – | – | 39.8 | EC50 [1, 14]: 69.2 µM; EC50 [1, 15]: 23.4 µM
CCCCCCCCCCCCCCCC(=O)O [Palmitic acid] | – | – | 8.32 | 3.09 | 5.01 | 5.01 | –
CCCCCC/C=C\CCCCCCCC(=O)O [Palmitoleic acid] | – | – | 15.1 | 15.5 | 11 | 13.8 | –
CCCCCCCCCCCCCCC(=O)O [Pentadeconoic acid] | – | – | 10.7 | 4.37 | 6.17 | 6.61 | –
CCCCCCCCCCCCCCCCCC(=O)O [Stearic acid] | – | – | 20 | 16.6 | 14.1 | 16.6 | –
CCCCCCCCCCC(=O)O [Undecanoic acid] | – | – | 25.1 | 21.9 | 14.8 | 20 | –
CCC=CCC=CCC=CCC=CCC=CC/C=C\CCC(=O)O [cis-4,7,10,13,16,19-Docosahexaenoic acid] | 1.6 | 1.62 | 6.61 | 2.95 | 3.98 | 4.27 | –
calcitonin | – | – | – | – | – | – | luciferase production (CRE-luciferase) [2]: increase in luciferase production; luciferase production (CRE-luciferase) [3]: increase in luciferase production
pertussis toxin | – | – | – | – | – | – | decrease of basal reporter activity following pertussis toxin treatment ([4]; GPR40 clones, 1 ug/ml pertussis toxin): up to 70%
thrombin | – | – | – | – | – | – | agonist-stimulated reporter activity after pertussis toxin treatment [5]: only partially attenuated
